Source: ChEMBL document CHEMBL4346675, “Multi-target compounds acting in cancer progression: Focus on thiosemicarbazone, thiazole and thiazolidinone analogues” (Eur J Med Chem, 2019)

Tests used:
[1] = biological target: Suppressor of tumorigenicity 14 protein (Homo sapiens, UniProt Q9Y5Y6); assay: Inhibition of recombinant human matriptase preincubated for 30 mins followed by Boc-QLR-AMC substrate addition by fluorescence assay
[2] = biological target: Serine protease hepsin (Homo sapiens, UniProt P05981); assay: Inhibition of recombinant human hepsin preincubated for 30 mins followed by Boc-QLR-AMC substrate addition by fluorescence assay
Serine protease hepsin, sequence (P05981 1-162 limits assumed): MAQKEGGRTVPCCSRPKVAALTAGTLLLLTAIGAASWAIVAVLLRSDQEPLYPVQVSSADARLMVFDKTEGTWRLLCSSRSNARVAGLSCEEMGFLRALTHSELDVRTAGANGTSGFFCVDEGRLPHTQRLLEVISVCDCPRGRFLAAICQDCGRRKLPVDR
Serine protease hepsin, sequence (P05981 163-417 limits assumed): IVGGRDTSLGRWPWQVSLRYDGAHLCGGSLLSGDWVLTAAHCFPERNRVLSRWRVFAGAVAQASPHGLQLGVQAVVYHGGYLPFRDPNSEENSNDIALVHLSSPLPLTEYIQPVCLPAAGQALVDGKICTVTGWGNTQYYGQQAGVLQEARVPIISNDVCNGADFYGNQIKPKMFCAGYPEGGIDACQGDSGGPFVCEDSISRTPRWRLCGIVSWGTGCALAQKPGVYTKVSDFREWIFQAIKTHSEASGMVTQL

[3] = biological target: Coagulation factor X (Homo sapiens, UniProt P00742); assay: Inhibition of recombinant factor 10a (unknown origin) preincubated for 30 mins followed by chromogenic substrate addition by fluorescence assay
Coagulation factor X, sequence (P00742 41-179 limits assumed): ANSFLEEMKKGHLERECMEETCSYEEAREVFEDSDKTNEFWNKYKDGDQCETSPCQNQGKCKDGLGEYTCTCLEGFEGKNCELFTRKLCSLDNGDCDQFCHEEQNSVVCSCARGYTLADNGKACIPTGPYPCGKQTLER
Coagulation factor X, sequence (P00742 235-488 limits assumed): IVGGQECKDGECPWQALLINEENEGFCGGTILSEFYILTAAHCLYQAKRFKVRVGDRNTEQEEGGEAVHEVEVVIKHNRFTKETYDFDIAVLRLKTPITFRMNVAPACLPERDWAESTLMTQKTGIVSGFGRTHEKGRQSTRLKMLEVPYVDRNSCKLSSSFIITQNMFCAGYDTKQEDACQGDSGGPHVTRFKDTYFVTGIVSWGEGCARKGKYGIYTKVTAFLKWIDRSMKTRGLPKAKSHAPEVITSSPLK

[4] = biological target: Hepatocyte growth factor activator serine protease (Homo sapiens, UniProt Q04756); assay: Inhibition of recombinant HGFA serine protease domain (unknown origin) preincubated for 30 mins followed by Boc-QLR-AMC substrate addition by fluorescence assay
Hepatocyte growth factor activator serine protease, sequence (Q04756 373-407 limits assumed): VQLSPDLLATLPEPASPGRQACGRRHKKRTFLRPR
Hepatocyte growth factor activator serine protease, sequence (Q04756 408-655 limits assumed): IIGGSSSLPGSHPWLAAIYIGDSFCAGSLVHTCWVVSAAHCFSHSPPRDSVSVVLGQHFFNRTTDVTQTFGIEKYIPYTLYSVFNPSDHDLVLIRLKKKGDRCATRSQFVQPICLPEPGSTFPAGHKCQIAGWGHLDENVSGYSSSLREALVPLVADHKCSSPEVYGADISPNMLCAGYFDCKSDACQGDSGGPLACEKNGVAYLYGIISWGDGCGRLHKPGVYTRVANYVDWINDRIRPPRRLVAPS

[5] = biological target: Histone deacetylase 1 (Homo sapiens, UniProt Q13547); assay: Inhibition of HDAC1 (unknown origin) using Ac-peptide as substrate pretreated for 15 mins followed by substrate addition and measured after 60 mins by fluorescence assay
Histone deacetylase 1, sequence (Q13547 whole entry): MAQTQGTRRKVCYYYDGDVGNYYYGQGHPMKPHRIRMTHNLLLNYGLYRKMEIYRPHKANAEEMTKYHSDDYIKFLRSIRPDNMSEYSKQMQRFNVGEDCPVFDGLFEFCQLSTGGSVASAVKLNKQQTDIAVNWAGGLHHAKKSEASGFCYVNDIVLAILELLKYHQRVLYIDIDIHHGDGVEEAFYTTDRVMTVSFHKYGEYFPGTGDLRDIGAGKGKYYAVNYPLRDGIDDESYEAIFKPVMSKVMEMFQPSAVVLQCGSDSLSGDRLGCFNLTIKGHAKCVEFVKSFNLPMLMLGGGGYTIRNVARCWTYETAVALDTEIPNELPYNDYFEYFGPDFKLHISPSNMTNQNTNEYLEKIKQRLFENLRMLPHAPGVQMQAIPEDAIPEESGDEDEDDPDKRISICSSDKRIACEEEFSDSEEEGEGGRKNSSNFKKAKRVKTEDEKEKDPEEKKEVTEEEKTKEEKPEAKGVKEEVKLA

[6] = biological target: Epidermal growth factor receptor (Homo sapiens) (UniProt P00533); assay: Inhibition of EGFR (unknown origin) at 10 uM by immunoassay relative to control
Epidermal growth factor receptor (Homo sapiens), sequence (P00533 whole entry): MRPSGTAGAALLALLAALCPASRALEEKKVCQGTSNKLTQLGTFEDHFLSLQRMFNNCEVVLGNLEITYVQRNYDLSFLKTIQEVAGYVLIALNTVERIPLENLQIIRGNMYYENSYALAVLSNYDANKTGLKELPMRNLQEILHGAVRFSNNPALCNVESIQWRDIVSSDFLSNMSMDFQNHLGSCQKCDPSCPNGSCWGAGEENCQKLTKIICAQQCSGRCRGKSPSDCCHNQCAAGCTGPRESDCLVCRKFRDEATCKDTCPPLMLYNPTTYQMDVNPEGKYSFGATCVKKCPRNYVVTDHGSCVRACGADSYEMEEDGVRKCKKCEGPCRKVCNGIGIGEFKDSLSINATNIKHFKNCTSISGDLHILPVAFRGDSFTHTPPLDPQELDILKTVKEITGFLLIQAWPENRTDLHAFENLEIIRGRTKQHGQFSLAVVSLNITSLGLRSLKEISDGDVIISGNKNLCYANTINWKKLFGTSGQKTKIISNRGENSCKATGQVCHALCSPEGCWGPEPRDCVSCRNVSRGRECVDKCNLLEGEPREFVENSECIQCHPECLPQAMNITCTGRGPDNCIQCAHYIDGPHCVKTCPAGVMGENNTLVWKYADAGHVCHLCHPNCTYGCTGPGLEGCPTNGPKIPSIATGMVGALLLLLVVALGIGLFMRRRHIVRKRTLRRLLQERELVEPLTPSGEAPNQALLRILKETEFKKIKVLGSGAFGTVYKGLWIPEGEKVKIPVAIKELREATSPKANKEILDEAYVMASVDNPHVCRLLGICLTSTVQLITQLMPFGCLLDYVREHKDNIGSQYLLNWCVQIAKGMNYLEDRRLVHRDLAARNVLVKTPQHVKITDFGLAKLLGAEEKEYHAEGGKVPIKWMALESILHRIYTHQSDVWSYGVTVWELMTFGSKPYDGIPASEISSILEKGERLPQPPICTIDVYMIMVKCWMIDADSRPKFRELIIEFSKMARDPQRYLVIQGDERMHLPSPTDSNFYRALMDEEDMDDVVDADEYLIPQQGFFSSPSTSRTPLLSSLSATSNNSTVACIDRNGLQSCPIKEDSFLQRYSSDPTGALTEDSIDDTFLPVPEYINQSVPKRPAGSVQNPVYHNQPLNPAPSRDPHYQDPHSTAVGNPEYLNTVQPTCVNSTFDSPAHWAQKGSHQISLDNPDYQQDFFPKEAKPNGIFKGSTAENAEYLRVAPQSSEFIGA

[7] = tested on: HepG2; assay: Cytotoxicity against human HepG2 cells incubated for 48 hrs by MTT assay; assay type: functional, cell-based; conditions: HepG2, 48 h
[8] = tested on: HT-29; assay: Cytotoxicity against human HT-29 cells incubated for 72 hrs by MTT assay; assay type: functional; conditions: HT-29, 72 h
[9] = tested on: Jurkat; assay: Cytotoxicity against human Jurkat cells incubated for 72 hrs by MTT assay; assay type: functional
[10] = tested on: MDA-MB-231; assay: Anti-invasive activity against human MDA-MB-231 cells at 30 nM by crystal violet staining based Boyden chamber assay relative to control; assay type: functional
[11] = tested on: NIH3T3; assay: Anti-invasive activity against mouse NIH/3T3 cells transfected with human AdoMetDC cDNA in sense orientation assessed as inhibition of cell invasion at 100 ng/ml incubated for 1 weeks by matrigel-based microscopic analysis relative to control; assay type: functional; conditions: NIH3T3, 168 h
[12] = tested on: NIH3T3; assay: Anti-invasive activity against mouse NIH/3T3 cells transfected with human AdoMetDC cDNA in antisense orientation assessed as inhibition of cell invasion at 100 ng/ml incubated for 1 weeks by matrigel-based microscopic analysis relative to control; assay type: functional; conditions: NIH3T3, 168 h
[13] = tested on: MIA PaCa-2; assay: Cytotoxicity against human MIAPaCa2 cells incubated for 24 hrs by MTT assay; assay type: functional, cell-based; conditions: MIA PaCa-2, 24 h
[14] = tested on: CFPAC-1; assay: Cytotoxicity against human CFPAC-1 cells incubated for 24 hrs by MTT assay; assay type: functional, cell-based; conditions: CFPAC-1, 24 h
[15] = tested on: PANC-1; assay: Cytotoxicity against human PANC1 cells incubated for 24 hrs by MTT assay; assay type: functional, cell-based; conditions: PANC-1, 24 h
[16] = tested on: Capan-2; assay: Cytotoxicity against human Capan2 cells incubated for 24 hrs by MTT assay; assay type: functional, cell-based; conditions: Capan-2, 24 h
[17] = biological target: Tubulin (Homo sapiens) (UniProt P68371+Q9H4B7+P0DPH7+P68366+Q13509+Q71U36+P04350+Q3ZCM7+P07437+P68363+Q9BQE3+Q6PEY2+Q13885+Q9BVA1+Q9BUF5); assay: Inhibition of tubulin polymerization (unknown origin) at 3 uM incubated for 1 hr by fluorescence assay relative to control; assay type: protein-complex assay
[18] = tested on: MDA-MB-231; assay: Cytotoxicity against human MDA-MB-231 cells incubated for 48 hrs by MTT assay; assay type: functional, cell-based; conditions: MDA-MB-231, 48 h
[19] = tested on: L1210; assay: Growth inhibition of mouse L1210 cells by MTS assay; assay type: functional, cell-based
[20] = Cytotoxicity against mouse MM3MG cells incubated for 48 hrs by MTT assay; assay type: functional, cell-based
[21] = tested on: HK-2; assay: Cytotoxicity against human HK2 cells incubated for 48 hrs by MTT assay; assay type: cell-based; conditions: HK-2, 48 h
[22] = tested on: A549; assay: Cytotoxicity against human A549 cells incubated for 48 hrs by MTT assay; assay type: functional, cell-based; conditions: A549, 48 h
[23] = tested on: CT26; assay: Cytotoxicity against mouse CT26 cells incubated for 48 hrs by MTT assay; assay type: functional, cell-based; conditions: CT26, 48 h
[24] = Cytotoxicity against mouse Meth-A cells incubated for 48 hrs by MTT assay; assay type: functional, cell-based
[25] = tested on: 4T1; assay: Antitumor activity against mouse 4T1 cells implanted in BALB/c mouse assessed as median number of metastases per lung at 100 mg/kg, ig administered daily post implantation (reference value: 40.5); assay type: functional
[26] = tested on: DU-145; assay: Cytotoxicity against human DU145 cells incubated for 48 hrs by MTT assay; assay type: functional, cell-based; conditions: DU-145, 48 h
[27] = tested on: 4T1; assay: Antitumor activity against mouse 4T1 cells implanted in BALB/c mouse assessed as median number of metastases per lung at 50 mg/kg, ig administered daily post implantation (reference value: 40.5); assay type: functional
[28] = tested on: B16; assay: Cytotoxicity against mouse B16 cells incubated for 48 hrs by MTT assay; assay type: functional, cell-based; conditions: B16, 48 h
[29] = tested on: Lewis lung carcinoma cell line; assay: Cytotoxicity against mouse LLC cells incubated for 48 hrs by MTT assay; assay type: functional, cell-based
[30] = tested on: 4T1; assay: Inhibition of colony formation in mouse 4T1 cells assessed as assessed as colony forming units at 2.5 uM incubated for 7 to 10 days by crystal violet staining based microscopic method (reference value: 364 +/- 46.4 No unit); assay type: functional
[31] = tested on: 4T1; assay: Inhibition of colony formation in mouse 4T1 cells assessed as colony forming units at 1.25 uM incubated for 7 to 10 days by crystal violet staining based microscopic method (reference value: 364 +/- 46.4 No unit); assay type: functional
[32] = tested on: L02; assay: Cytotoxicity against human L02 cells incubated for 48 hrs by MTT assay; assay type: cell-based; conditions: L02, 48 h
[33] = tested on: HeLa; assay: Cytotoxicity against human HeLa cells incubated for 48 hrs by MTT assay; assay type: functional, cell-based
[34] = tested on: 4T1; assay: Cytotoxicity against mouse 4T1 cells incubated for 48 hrs by MTT assay; assay type: functional, cell-based; conditions: 4T1, 48 h
[35] = Cytotoxicity against mouse DLA cells incubated for 48 hrs by MTT assay; assay type: functional, cell-based
[36] = Cytotoxicity against mouse DLA cells incubated for 48 hrs by LDH release assay; assay type: functional, cell-based
[37] = Cytotoxicity against mouse DLA cells incubated for 48 hrs by trypan blue dye based assay; assay type: functional, cell-based
[38] = biological target: Proto-oncogene tyrosine-protein kinase Src (Homo sapiens, UniProt P12931); assay: Inhibition of SRC (unknown origin) by Z'-LYTE assay
Proto-oncogene tyrosine-protein kinase Src, sequence (P12931 2-536 limits assumed): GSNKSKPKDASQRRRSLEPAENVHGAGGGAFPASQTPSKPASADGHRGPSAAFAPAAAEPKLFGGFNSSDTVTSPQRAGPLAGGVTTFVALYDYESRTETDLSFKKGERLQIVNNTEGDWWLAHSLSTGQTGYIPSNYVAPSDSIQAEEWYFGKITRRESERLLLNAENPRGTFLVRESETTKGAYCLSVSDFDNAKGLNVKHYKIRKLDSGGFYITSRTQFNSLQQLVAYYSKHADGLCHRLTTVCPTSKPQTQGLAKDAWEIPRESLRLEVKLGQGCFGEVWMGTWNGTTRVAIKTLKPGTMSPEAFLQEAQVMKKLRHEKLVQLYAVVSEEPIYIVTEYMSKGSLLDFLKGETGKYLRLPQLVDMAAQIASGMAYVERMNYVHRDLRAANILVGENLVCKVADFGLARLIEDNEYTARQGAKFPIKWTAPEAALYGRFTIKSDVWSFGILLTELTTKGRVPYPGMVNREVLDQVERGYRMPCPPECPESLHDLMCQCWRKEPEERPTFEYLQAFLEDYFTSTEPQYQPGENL

[39] = biological target: Prothrombin (Homo sapiens, UniProt P00734); assay: Inhibition of recombinant thrombin (unknown origin) preincubated for 30 mins followed by chromogenic substrate addition by fluorescence assay

Suppressor of tumorigenicity 14 protein, sequence (Q9Y5Y6 whole entry): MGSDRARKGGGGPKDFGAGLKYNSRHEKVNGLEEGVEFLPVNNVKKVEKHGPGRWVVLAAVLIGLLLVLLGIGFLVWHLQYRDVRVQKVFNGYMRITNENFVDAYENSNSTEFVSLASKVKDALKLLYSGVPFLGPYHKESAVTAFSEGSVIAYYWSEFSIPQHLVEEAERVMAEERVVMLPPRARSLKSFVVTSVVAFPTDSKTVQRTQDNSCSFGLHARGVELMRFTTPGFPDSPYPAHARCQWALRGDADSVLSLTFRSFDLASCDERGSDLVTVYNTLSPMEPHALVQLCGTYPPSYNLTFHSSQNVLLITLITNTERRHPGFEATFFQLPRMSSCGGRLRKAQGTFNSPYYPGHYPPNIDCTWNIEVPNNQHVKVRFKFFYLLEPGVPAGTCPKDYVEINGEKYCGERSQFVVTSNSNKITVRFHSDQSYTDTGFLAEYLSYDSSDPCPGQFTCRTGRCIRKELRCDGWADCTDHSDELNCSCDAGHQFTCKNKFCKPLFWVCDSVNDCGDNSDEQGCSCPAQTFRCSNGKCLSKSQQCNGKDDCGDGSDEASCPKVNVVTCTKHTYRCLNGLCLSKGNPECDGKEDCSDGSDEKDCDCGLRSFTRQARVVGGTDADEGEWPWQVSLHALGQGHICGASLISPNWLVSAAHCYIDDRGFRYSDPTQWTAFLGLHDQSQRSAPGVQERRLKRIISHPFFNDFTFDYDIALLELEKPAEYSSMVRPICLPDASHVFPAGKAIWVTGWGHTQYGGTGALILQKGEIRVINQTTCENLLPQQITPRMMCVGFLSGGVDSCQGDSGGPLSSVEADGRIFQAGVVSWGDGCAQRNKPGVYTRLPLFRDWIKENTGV

CC(=O)N[C@@H](CCCCN)C(=O)N[C@@H](CCCNC(=N)N)C(=O)N[C@@H](CC(C)C)C(=O)N[C@@H](CCCNC(=N)N)C(=O)c1nc2ccc(C(=O)NCc3ccc(C(=O)O)cc3)cc2s1
Ki [1]: 2.5 nM
Ki [2]: 0.67 nM
Ki [3]: 29 nM
Ki [4]: 3.7 nM

O=C(CCCOc1ccc(N2C(=O)CSC2c2ccc(Br)s2)cc1)NO (configuration not stated)
IC50 [5]: 73 nM

Clc1ccc(/C=N\Nc2ccc(-c3nc4ccccc4s3)cc2)cc1
inhibition [6]: 47.3%
IC50 [7]: 27 nM

CC/C(=N\Nc1nc(-c2ccc(OC)cc2)cs1)c1cccc(Br)c1
CC50 [8]: 62000 nM
CC50 [9]: 114000 nM

C/C1=C/C(=O)O[C@@H]2C[C@@H](CC[C@H](C)/C=C\C=C\CC1)O[C@@](O)([C@@H]1CSC(=O)N1)C2 [LATRUNCULIN A]
Activity [10]: <50%
inhibition at 0.1 µg/mL [11]: > 95%
inhibition at 0.1 µg/mL [12]: > 95%

O=c1[nH]cc(F)c(=O)[nH]1 [FLUOROURACIL]
IC50 [13]: 24300 nM
IC50 [14]: 41200 nM
IC50 [15]: 62300 nM
IC50 [16]: 54200 nM

CN(C)C(=S)NN=C(c1ccccn1)c1ccccn1
IC50 [13]: 1 nM
IC50 [14]: 200 nM
IC50 [15]: 4 nM
IC50 [16]: 1 nM

COc1ccc(C(=O)CCc2cn3c(n2)sc2ccccc23)cc1
inhibition [17]: 61.4%
IC50 [18]: 1200 nM

NC(=S)N/N=C/c1ncccc1N [TRIAPINE]
IC50 [19]: 1300 nM

COc1ccccc1C(=O)Nc1ccc2nc(SCC(=O)NCc3ccc(Cl)cc3)sc2c1
IC50 [20]: > 40000 nM
IC50 [21]: > 40000 nM
IC50 [22]: 2400 nM
IC50 [23]: 4300 nM
IC50 [24]: 12300 nM
Activity [25]: 6
IC50 [26]: 1900 nM
Activity [27]: 19.5
IC50 [28]: 5600 nM
IC50 [29]: 6500 nM
Activity [30]: 56 CFU
Activity [31]: 189 CFU
IC50 [32]: > 40000 nM
IC50 [33]: 4300 nM
IC50 [34]: 1200 nM

O=C(CN1CCN(c2nc3ccccc3s2)CC1)NNC(=O)c1ccc(Br)cc1
IC50 [35]: 22600 nM
IC50 [36]: 23000 nM
IC50 [37]: 25000 nM

Cc1nc(Nc2ncc(-c3ccccc3)s2)cc(N2CCN(CCO)CC2)n1
IC50 [38]: 97 nM

CC[C@H](NC(C)=O)C(=O)N[C@@H](CCCN)C(=O)N[C@@H](CC(C)C)C(=O)N[C@@H](CCCNC(=N)N)C(=O)c1nc2ccc(C(=O)NC3CCNCC3)cc2s1
Ki [1]: 1.3 nM
Ki [39]: 2950 nM
Ki [2]: 0.27 nM
Ki [3]: 447 nM
Ki [4]: 7.2 nM

COC(=O)Nc1nc2cc(C(=O)c3cccs3)ccc2[nH]1
inhibition [17]: 58.3%

O=C1c2ccccc2C(=O)N1C/C=N\N=c1\scc(-c2cccc([N+](=O)[O-])c2)n1-c1ccccc1
CC50 [8]: 21300 nM
CC50 [9]: 21200 nM

Nc1ccn([C@@H]2O[C@H](CO)[C@@H](O)C2(F)F)c(=O)n1 [GEMCITABINE]
IC50 [13]: 16 nM
IC50 [14]: 22 nM
IC50 [15]: 11000 nM
IC50 [16]: 40800 nM

CN(C(=S)NN=C(c1ccccn1)c1ccccn1)C1CCCCC1
IC50 [13]: 5 nM
IC50 [14]: 203 nM
IC50 [15]: 30 nM
IC50 [16]: 20 nM

C/C(=N\NC1SC=C(c2ccc3ccccc3c2)N1C)c1ccccn1 (configuration not stated)
CC50 [8]: 57800 nM
CC50 [9]: 16200 nM

COc1ccc2c(c1)sc1nc(CCC(=O)c3ccc(OC)c(O)c3)cn12
inhibition [17]: 59.2%
IC50 [18]: 1300 nM
